From patent US10280160B2, “Phthalazinone compounds and methods for the treatment of cystic fibrosis” (FLATLEY DISCOVERY LAB, LLC, priority 2013, dated 2019)

target: human F508del CFTR (Homo sapiens (Human), UniProt P13569, DEL508-508); assay: CFTR-YFP High Throughput Assay (YFP halide flux, FRT cells); format: cell-based; conditions: EMax normalized to the positive control; FRT cells expressing human F508del CFTR and YFP; read-out: % Efficacy
Description: Assays for Detecting and Measuring the Effect of Compounds on F508del-CFTR Channels CFTR-YFP Assay-CFTR Corrector Protocol:
This protocol is designed to selectively screen small molecule compounds for F508del CFTR corrector activities in the YFP (yellow fluorescent protein) flux assay. In this protocol, the cells are incubated with testing compounds for 24 hours, washed with PBS, stimulated with forskolin and a standard potentiator, and fluorescence in each plate well is measured kinetically read on a 384-well plate reader, such as the Hamamatsu FDSS-6000.
YFP fluorescence intensity values are acquired at high speed before and after iodide buffer is injected to the assay cells. Iodide enters the cells via active CFTR channels in the plasma membrane, and quenches the YFP fluorescence. The rate of fluorescence quenching is proportionate to the total CFTR activity in the cell membrane. F508del CFTR correctors increase the number of CFTR molecules in the testing cell plasma membrane, and thereby accelerate YFP quenching.
This method was initially developed for bench top plate readers (Galietta, J, Jayaraman, S and Verkman, A S. Cell-based assay for high-throughput quantitative screening of CFTR chloride transport agonists. Am. J. Physiol. Cell Physiol. (2001), 281: C173), and was adapted to the HTS format (Sui J, Cotard S, Andersen J, Zhu P, Staunton J, Lee M, Lin S. Optimization of a Yellow fluorescent protein-based iodide influx high-throughput screening assay for cystic fibrosis transmembrane conductance regulator (CFTR) modulators. Assay Drug Dev Technol. (2010), 8: 656-668).
Fisher Rat Thyroid (FRT) cells stably expressing both human F508del CFTR and a halide-sensitive yellow fluorescent protein (YFP-H148Q/I152L 25,22) (Galietta et al. Am. J. Physiol Cell Physiol 281(5), C1734, 2001) were cultured on plastic surface in Coon's modified Ham's F12 medium supplemented with FBS 10%, L-glutamine 2 mM, penicillin 100 U/ml, and streptomycin 100 μg/ml. G418 (0.75-1.0 mg/ml) and zeocin (3.2 ug/ml) were used for selection of FRT cells expressing F508del CFTR and YFP. For primary screening, FRT cells were plated into 384-well black wall, transparent bottom microtiter plates (Costar; Corning Inc.) at a cell density of 20,000-40,000 per well. Test compound was applied to the cells at varying concentrations ranging from 2 nM-40 μM in either a 2-fold or 3-fold dilution series. Cells were incubated in a cell culture incubator at 37° C. with 5% CO2 for 24-26 h. Assay plates were washed with DPBS media (Thermo, cat # SH30028.02) to remove unbound cells and compound. Stimulation media (25 μL) containing 20 μM Forskolin & 30 μM P3 [6-(Ethyl-phenyl-sulfonyl)-4-oxo-1,4-dihydro-quinoline-3-carboxylic acid 2-methoxy-benzylamide] in Hams F-12 coon's modified media was added to the plate wells and incubated at room temperature for 60-120 min. 25 μL of HEPES-PBS-I buffer (10 mM HEPES, 1 mM MgCl2, 3 mM KCl, 1 mM CaCl2, 150 mM NaI) was then added and fluorescence quench curves (Excitation 500 nm/Emission 540 nm; exposure 136 ms) were immediately recorded on an FDSS-6000 plate reader (Hamamatsu). Quench rates were derived from least squares fitting of the data as described by Sui et al (2010).
CFTR-YFP Assay-CFTR Potentiator Protocol:
This protocol is designed to selectively screen small molecule compounds for F508del CFTR potentiator activities in the YFP (yellow fluorescent protein) flux assay. Such compounds act acutely to stimulate CFTR already expressed on the membrane surface. In this protocol, the cells are incubated at 27° C. for 24 hours to homogeneously boost F508del CFTR expression in the cell membrane (low temperature correction), washed with PBS, treated with test compound, and CFTR activity is stimulated with forskolin for 1-2 hr. Measurement of ion flux is initiated by addition of iodide-containing buffer, and YFP quenching is kinetically recorded using a 384-well plate reader, such as the Hamamatsu FDSS-6000. […]

human F508del CFTR, sequence (P13569 other isoform, or with tags, fused parts or gaps del F508-F508): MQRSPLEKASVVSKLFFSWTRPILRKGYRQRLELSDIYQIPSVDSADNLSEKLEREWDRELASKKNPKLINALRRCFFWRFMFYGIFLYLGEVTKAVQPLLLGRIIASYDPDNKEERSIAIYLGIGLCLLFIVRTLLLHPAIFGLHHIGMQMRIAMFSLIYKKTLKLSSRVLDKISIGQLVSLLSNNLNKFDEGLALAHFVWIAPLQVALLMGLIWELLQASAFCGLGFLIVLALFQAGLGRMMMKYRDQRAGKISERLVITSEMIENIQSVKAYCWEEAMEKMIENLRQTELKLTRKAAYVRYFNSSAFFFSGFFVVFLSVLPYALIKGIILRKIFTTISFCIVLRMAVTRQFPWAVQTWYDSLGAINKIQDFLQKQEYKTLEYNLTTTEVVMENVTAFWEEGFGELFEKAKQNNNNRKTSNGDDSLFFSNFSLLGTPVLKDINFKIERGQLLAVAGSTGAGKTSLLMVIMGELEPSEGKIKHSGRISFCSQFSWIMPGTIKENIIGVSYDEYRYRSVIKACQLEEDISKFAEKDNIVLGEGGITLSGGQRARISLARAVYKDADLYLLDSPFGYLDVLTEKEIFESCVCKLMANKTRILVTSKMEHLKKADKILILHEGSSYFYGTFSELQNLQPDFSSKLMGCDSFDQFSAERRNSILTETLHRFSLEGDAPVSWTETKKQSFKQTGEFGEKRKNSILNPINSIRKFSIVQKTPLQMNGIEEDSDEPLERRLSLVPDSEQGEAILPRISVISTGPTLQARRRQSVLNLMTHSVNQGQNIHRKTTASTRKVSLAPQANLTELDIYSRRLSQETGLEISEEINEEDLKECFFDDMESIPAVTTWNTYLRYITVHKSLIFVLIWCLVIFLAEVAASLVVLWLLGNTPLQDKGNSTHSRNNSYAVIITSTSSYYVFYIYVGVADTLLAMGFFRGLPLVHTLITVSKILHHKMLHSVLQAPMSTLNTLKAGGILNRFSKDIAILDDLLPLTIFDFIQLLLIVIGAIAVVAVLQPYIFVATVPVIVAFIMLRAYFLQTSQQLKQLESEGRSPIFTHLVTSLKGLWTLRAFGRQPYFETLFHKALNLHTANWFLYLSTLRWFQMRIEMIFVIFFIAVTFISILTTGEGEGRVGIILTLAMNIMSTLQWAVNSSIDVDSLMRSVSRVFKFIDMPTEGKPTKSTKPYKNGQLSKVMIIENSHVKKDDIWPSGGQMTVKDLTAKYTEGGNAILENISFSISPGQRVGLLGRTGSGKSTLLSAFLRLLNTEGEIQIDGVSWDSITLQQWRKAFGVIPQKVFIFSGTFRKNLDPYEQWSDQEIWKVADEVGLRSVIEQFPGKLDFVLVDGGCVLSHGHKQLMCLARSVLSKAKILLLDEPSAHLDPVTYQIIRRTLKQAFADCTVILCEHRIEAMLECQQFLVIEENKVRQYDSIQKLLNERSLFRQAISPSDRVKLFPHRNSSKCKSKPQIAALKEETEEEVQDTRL

SMILES | Emax [%]
Cc1nc2ccc(N(C)C(=O)Cn3nc(-c4cccc(Cl)c4)c4ccc(OC(C)C)cc4c3=O)cc2o1 [Example 25, 2-(4-(3-chlorophenyl)-7-isopropoxy-1-oxophthalazin-2(1H)-yl)-N-methyl-N-(2-methylbenzo[d]oxazol-6-yl)acetamide] | > 80
Cc1nc2ccc(N(C)C(=O)Cn3nc(-c4cccc(Cl)c4)c4ccc(OC5CCCCC5)cc4c3=O)cc2o1 [Example 26, 2-(4-(3-chlorophenyl)-7-(cyclohexyloxy)-1-oxophthalazin-2(1H)-yl)-N-methyl-N-(2-methylbenzo[d]oxazol-6-yl)acetamide] | > 80
Cc1nc2ccc(N(C)C(=O)Cn3nc(-c4cccc(F)c4)c4ccc(OC5CCCCC5)cc4c3=O)cc2o1 [Example 28, 2-(7-(cyclohexyloxy)-4-(3-fluorophenyl)-1-oxophthalazin-2(1H)-yl)-N-methyl-N-(2-methylbenzo[d]oxazol-6-yl)acetamide] | > 80
CCOc1cc2c(=O)n(CC(=O)N(C)c3ccc4nc(C)oc4c3)nc(-c3cccc(F)c3)c2cc1Cl [Example 30] | 30 to 80
CCOc1cc2c(=O)n(CC(=O)N(C)c3ccc4nc(C)oc4c3)nc(-c3cccc(Cl)c3)c2cc1Cl [Example 31, 2-(6-chloro-4-(3-chlorophenyl)-7-ethoxy-1-oxophthalazin-2(1H)-yl)-N-methyl-N-(2-methylbenzo[d]oxazol-6-yl)acetamide] | > 80

Further lines, results first:

Emax [%] | SMILES
> 80 | Cc1nc2ccc(N(C)C(=O)Cn3nc(-c4cccc(F)c4)c4ccc(OC5CCOCC5)cc4c3=O)cc2o1 [Example 27, 2-(4-(3-fluorophenyl)-1-oxo-7-((tetrahydro-2H-pyran-4-yl)oxy)phthalazin-2(1H)-yl)-N-methyl-N-(2-methylbenzo[d]oxazol-6-yl)acetamide]
> 80 | Cc1nc2ccc(N(C)C(=O)Cn3nc(-c4cccc(Cl)c4)c4ccc(OC5CCOCC5)cc4c3=O)cc2o1 [Example 29, 2-(4-(3-chlorophenyl)-1-oxo-7-((tetrahydro-2H-pyran-4-yl)oxy)phthalazin-2(1H)-yl)-N-methyl-N-(2-methylbenzo[d]oxazol-6-yl)acetamide]
